In patent US8901177B2, “Method of treating bladder disorders” (Targacept, Inc., priority 2012, dated 2014):
Like-named read-outs stand apart in the source and are kept apart here.

Assays:
[1] = tested on: bladder function in anesthetized rats; assay: Intravesical model in anesthetized rats (increased bladder contraction frequency), cystometry; format: in vivo, rat; conditions: 10 μM intravesical
Method: Female Sprague Dawley rats (200-290 g) from Charles River France, housed in 3-4 rats per cage were anesthetized with urethane (1.2 g/kg) s.c., 3 mL/kg). A polyethylene catheter was implanted into the bladder through the dome. Ureters were tied and cut. Intravesical infusion periods with saline followed by an intravesical infusion period with one of the test compounds, hexamethonium (10 μM) or dexmecamylamine (1 and 10 μM), are depicted in FIG. 7.
The intravesical anesthetized rat model is a model of increased bladder contraction frequency. The model is a “simplified” well established model used to evaluate OAB agents, recognizing that there are decreased inputs from cortical centers. This is the first known experiment using the intravesical anesthetized rat model of increased bladder contraction frequency to test dexmecamylamine for potential efficacy in treating OAB.

[2] = tested on: nicotinic receptors expressed in rat urinary bladder epithelial cells; conditions: intravesical; nicotine 0.05 and 1 μM, hexamethonium 10 and 100 μM, choline 10 and 100 μM; cited from earlier work
[3] = tested on: bladder function in conscious rats; assay: Intravesical model in conscious rats, first study (UROsphere), cystometry; format: in vivo, rat; conditions: tolterodine 10 μM, TC-5213 1 and 10 μM, hexamethonium 10 μM, TC-5214 0.1, 1 and 10 μM
Text: (1) In a first study (performed by UROsphere), female Sprague Dawley rats (200-270 g) from Charles River France, housed in 3-4 rats per cage were anesthetized with isoflurane (1.5-3%). […], a polyethylene catheter was implanted in the bladder through the dome and exteriorized at the scapular level. Each rat was housed individually after surgery. The cystometry is depicted in FIG. 2. This is the first known experiment using the intravesical model in conscious rats to test dexmecamylamine for potential efficacy in treating OAB.
The effects of dosing dexmecamylamine (also referred to as TC-5214 and as TI-11179), at doses of 0.1, 1, and 10 μM are depicted in FIG. 4.
The effects of dosing hexamethonium (10 μM) and tolterodine (10 μM) are depicted in FIG. 5.

[4] = target: T1, human α3β4 channels (Homo sapiens, UniProt P30926+P32297); assay: Use-dependent inhibition of human α3β4 channels expressed in CHO cells (Dynaflow electrophysiology); format: cell-based
T1 construct: host or cells: CHO cells
T1 sequence (P32297 32-505): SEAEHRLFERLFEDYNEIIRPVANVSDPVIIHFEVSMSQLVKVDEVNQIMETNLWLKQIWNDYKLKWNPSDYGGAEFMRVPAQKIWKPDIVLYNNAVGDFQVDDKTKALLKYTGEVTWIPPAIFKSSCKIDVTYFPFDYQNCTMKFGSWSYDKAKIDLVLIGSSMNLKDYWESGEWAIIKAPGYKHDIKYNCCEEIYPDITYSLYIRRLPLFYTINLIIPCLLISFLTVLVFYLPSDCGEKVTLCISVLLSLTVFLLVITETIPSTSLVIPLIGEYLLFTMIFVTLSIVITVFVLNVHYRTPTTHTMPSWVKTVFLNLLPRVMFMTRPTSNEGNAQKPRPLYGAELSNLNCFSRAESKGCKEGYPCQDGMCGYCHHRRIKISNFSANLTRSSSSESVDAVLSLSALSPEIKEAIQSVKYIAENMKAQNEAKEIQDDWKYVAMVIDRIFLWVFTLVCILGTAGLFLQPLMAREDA
T1 sequence (P30926 22-498): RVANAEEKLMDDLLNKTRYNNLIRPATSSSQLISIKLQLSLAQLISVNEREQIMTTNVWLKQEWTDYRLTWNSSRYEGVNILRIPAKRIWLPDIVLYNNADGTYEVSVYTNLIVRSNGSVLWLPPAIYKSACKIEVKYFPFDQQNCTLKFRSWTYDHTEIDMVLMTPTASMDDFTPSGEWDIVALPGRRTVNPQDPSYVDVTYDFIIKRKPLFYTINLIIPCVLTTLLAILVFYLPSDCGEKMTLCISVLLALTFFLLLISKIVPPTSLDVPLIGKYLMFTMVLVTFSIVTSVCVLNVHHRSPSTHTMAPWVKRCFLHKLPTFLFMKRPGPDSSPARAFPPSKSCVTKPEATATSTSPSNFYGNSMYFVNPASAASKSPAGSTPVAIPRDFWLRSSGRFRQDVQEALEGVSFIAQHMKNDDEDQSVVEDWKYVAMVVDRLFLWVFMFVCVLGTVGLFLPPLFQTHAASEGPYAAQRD
Method: There was an assumption that the dependence on the number of co-applications would be the most relevant to clinical concentrations, since upon the time of exposure in vivo, the number of open channels could reach substantial numbers; perhaps due to channel spontaneous opening, flickering, and endogenous transmitter release as a result of brain activity. All experiments were performed using a conventional Dynaflow (Cellectricon Inc.) electrophysiological system. Dynaflow settings: To achieve continuous exposure to the drug we used following Dynaflow chip loading. An example of standard chip loading for use-dependent experiments with example for 30 μM ACh and 0.1 μM of TC-05231 (racemic mecamylamine). For the following experiments, ACh always consisted of 30 μM and concentrations of compounds were, 0.03, 0.1, 0.3 and 1.0 (μM). FIG. 13 illustrates the settings.
Applications were performed by positioning the cell in front of channel #1 for 1 second, followed by channel #3, then back to channel #1 by rapidly moving the Dynaflow chip, which consisted of both the laminar flow from the channels and the entire bath solution. The additional channels between control and ACh-containing channel were used: (1) to provide the needed space for an additional washout to avoid contaminating the control channels with the agonist solution; and (2) to allow for the necessary amount of time for the Dynaflow stage to reach its optimum scanning speed.
3.1. Establishment of recording baseline: First, pipette with cells moved to channel #3. Then cells were exposed to ACh by moving cells to channel #1 for 1 second and back to channel #3. This movement of cells was repeated 10 times at 30 second intervals;
3.2. Collection data on use-dependent inhibition: After establishment of stable baseline, cells were moved to channel #6 and exposed to a test compound for 30 sec. Then cells were moved to channel #8 for 1 second and back to channel #6 for 30 seconds (total 10 times with intervals 30 seconds); and 3.3. To test reversibility of block (washout): repeat step 1. Note: with this chip setting, during repeated application of acetylcholine plus test compound, there was no interruption in application of compounds. For all calculations, peak current amplitude was normalized to the peak current amplitude evoked by the 10th application of acetylcholine. Experimental Results

[5] = racemic Inversine 2.5 mg BID, spinal cord injury subjects; cited from earlier work
[6] = target: NMDA receptor NR1a-NR2A (Homo sapiens, UniProt Q05586+Q12879); assay: Glutamate-evoked currents at NR1a-NR2A receptors in Xenopus oocytes (two electrode voltage-clamp); format: cell-based; conditions: for recovery following wash-out: after sustained exposure
Chain of NMDA receptor NR1a-NR2A (Q12879 23-1464, other chains not shown): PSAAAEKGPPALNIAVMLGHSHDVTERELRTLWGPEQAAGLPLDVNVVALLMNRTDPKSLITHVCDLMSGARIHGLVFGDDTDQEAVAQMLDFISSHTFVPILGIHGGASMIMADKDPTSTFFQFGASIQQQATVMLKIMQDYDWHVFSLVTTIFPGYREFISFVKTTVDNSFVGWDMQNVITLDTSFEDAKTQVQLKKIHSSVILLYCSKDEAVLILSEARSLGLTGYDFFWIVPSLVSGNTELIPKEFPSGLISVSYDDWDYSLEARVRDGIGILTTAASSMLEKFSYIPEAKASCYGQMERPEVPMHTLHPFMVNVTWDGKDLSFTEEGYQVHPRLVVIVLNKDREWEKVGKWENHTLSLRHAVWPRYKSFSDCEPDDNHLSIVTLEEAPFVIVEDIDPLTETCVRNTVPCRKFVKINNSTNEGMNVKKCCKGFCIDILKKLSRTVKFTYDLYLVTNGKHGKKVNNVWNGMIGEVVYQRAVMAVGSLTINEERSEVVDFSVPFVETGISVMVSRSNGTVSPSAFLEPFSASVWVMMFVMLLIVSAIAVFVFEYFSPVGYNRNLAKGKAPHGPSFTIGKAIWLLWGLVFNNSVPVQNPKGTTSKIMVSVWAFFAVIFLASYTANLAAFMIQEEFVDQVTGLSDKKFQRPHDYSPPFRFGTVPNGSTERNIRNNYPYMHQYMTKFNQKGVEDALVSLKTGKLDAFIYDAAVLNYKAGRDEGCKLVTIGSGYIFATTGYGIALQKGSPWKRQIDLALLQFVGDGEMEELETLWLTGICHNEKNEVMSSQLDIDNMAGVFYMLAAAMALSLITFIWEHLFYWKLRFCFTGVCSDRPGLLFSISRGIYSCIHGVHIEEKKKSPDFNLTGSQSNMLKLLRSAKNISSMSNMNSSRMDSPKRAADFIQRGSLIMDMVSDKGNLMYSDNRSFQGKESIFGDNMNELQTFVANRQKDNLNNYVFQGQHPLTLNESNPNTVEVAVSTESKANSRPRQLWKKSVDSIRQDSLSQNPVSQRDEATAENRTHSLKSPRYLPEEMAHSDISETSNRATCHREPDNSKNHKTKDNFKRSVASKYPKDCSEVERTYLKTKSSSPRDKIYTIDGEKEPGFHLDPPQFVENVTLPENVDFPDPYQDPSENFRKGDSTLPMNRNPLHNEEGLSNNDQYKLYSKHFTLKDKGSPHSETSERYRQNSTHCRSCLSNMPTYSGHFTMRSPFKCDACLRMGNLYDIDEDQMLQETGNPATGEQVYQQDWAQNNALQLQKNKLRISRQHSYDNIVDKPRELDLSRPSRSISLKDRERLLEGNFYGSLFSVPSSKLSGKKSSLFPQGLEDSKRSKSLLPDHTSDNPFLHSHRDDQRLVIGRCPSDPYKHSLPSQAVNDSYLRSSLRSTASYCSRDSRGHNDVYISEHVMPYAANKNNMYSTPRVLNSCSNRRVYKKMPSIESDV
Method: All experiments were carried out at receptors expressed in Xenopus oocytes using the method of cDNA expression. Currents evoked by glutamate were recorded using the standard two electrode voltage-clamp configuration (TVEC). Xenopus oocytes were prepared and injected using standard procedures.
Briefly, ovaries are harvested from Xenopus Laevis females that have been deeply anesthetized and pithed following the animal rights rule from the Geneva canton. A small piece of ovary is isolated for immediate preparation while the remaining part is placed at 4° C. in a sterile Barth solution containing in mM NaCl 88, KCl 1, NaHCO3 2.4, HEPES 10, MgSO4.7H2O 0.82, Ca(NO3)2.4H2O 0.33, CaCl2.6H2O 0.41, at pH 7.4, and supplemented with 20 μg/ml of kanamycine, 100 unit/ml penicillin and 100 μg/ml streptomycin. On the second day following dissociation, oocytes are injected with 2 ng of cDNA per oocyte containing the NR1a-NR2A or NR1a-NR2B using an automated injector (Hogg et al., J. Neurosci. Methods, 2008). […] Cells were held at −80 mV. Data were filtered at 10 Hz, captured at 100 Hz and analyzed using HiQ proprietary data acquisition and analysis software running under Matlab (Mathworks Inc.).
Oocytes expressing the NR1a-NR2A or NR1a-NR2B receptors were challenged at periodic intervals with a glutamate test pulse. Test drug was then applied during a sustained period and its effects monitored by measuring the amplitude and time course of the glutamate evoked currents.
Experiments were carried out with the NR1a-NR2A and NR1a-NR2B at least in triplicate. Positive reference compounds (ketamine and MK-801) were tested using the same protocol.
To further evaluate effects of TC-5214, experiments using sustained exposure to this compound followed by a recovery period were carried out at NR1a-NR2A and NR1a-NR2B receptors. Measurements were made with (nM) 0, 3, 10, 30, 100, 300, TC-5214 and recovery monitored during 10 minutes. In addition, the same experimental protocol will be used with cells in control conditions to assess the stability of the measurements. Effects were measured in at least three cells.
A use-dependent protocol was used to identify non-competitive inhibition of the receptors. Cells expressing the NMDA receptors were tested for their sensitivity to TC-5214 at 30 nM, using the same protocol as described above. Cells from the same batch were tested in parallel using the same incubation time with an identical concentration of TC-5214 (30 nM) but in absence of pulses during the incubation time with the compound. Two glutamate pulses were applied at the end of the incubation time, and recovery monitored as for the control conditions.

[7] = TC-5213 28-day repeated oral toxicity study in rats; format: in vivo, rat
Method: Eighty rats (40/sex) were assigned to 4 groups of 10/sex/group. Test article in purified water or water (vehicle) alone were administered once daily via oral gavage at a dose volume of 10 mL/kg. The dose levels were 0, 1, 10, and 50 mg/kg/day. Animals were given TC-5213-23 orally (gavage) for 28 days except those given the test article at 50 mg/kg from Day 1 to 7, followed by a dose of 40 mg/kg/day on the subsequent 21 days. The dose levels were calculated based on the free base form of the test article.

[8] = 50 mg/kg/day oral, first week, after three to seven doses

C[N+](C)(C)CCCCCC[N+](C)(C)C [hexamethonium]
changes in the frequency of bladder contraction [1]: meaningful changes | significant effects on nicotinic receptors expressed in rat urinary bladder epithelial cells [2]: significant effects

Cc1ccc(O)c([C@H](CCN(C(C)C)C(C)C)c2ccccc2)c1 [tolterodine]
significant effects in cystometry [3]: significant effects

CNC1(C)C2CCC(C2)C1(C)C.Cl (racemic) [TC-5231, N,2,3,3-tetramethylbicyclo[2.2.1]heptan-2-amine hydrochloride, reference compound]
Inhibition by (%) ([4]; 100 nM compound, after 10 co-applications of 30 uM Ach and compound, hydrochloride): 25% ± 7% | activity at 0.03 µM ([4]; CHO, 30 nM compound + 30 μM ACh, successive grid rows = co-applications 1 to 10, control = 100, read-out: peak current amplitude normalized to 10th ACh application, use-dependent inhibition box): 99.3% | activity at 0.1 µM ([4]; CHO, 100 nM compound + 30 μM ACh, successive grid rows = co-applications 1 to 10 at 30 s intervals, control = 100, read-out: peak current amplitude normalized to 10th ACh application, use-dependent inhibition box): 94.5% | inhibition at 0.1 µM ([4]; CHO, 100 nM compound with acetylcholine, read-out: inhibition of human α3β4 receptor (asymptotes to the curve, FIG. 14)): 20% | inhibition at 0.1 µM ([4]; CHO, 100 nM compound, after 10 co-applications of 30 uM Ach and compound, read-out: Inhibition by (%)): 24.8% | recovery (%) ([4]; after 100 nM compound, following 10 application of Ach (30 uM) alone): 105% ± 11% | recovery / persistence of inhibition after wash out ([4]; after 30 and 100 nM compound, agonist alone): full recovery | bladder electric potential (amplitude of contraction) [5]: decrease in bladder electric potential (amplitude of contraction)

CNC1(c2ccccc2Cl)CCCCC1=O (stereo not shown) [ketamine, reference compound]
recovery following wash-out [6]: clear evidence for recovery

C[C@]12N[C@H](Cc3ccccc31)c1ccccc12 [MK-801, reference compound]
recovery following wash-out [6]: little evidence of recovery | inhibition by positive control ([6]; sustained exposure, glutamate test pulses): nearly complete inhibition

CN1CCCC1c1cccnc1 (stereo not shown) [nicotine]
significant effects on nicotinic receptors expressed in rat urinary bladder epithelial cells [2]: significant effects

CN[C@]1(C)[C@H]2CC[C@H](C2)C1(C)C [TC-5213, exo-R-mecamylamine]
significant effects in cystometry [3]: significant effects | distended urinary bladder, full of urine, in early dead animals: females ([7]; 50 mg/kg/day oral): 2 | distended urinary bladder, full of urine, in early dead animals: males ([7]; 50 mg/kg/day oral): 3 | early deaths, females [7, 8]: 5/10 | early deaths, males [7, 8]: 4/10 | mortality, organ weight and microscopic changes ([7]; 50→40 mg/kg/day daily oral): resulted in mortality, organ weight and/or microscopic changes | No-Observed-Effect-Level (NOEL) ([7]; 28 days oral, males and females): 1 mg/kg/day | opthalmological examinations ([7]; rat, in vivo): No test article related changes | clinical pathology changes ([7]; rat, in vivo, 40 mg/kg/day): slight increases in neutrophils; slight decreases in lymphocyte and platelets; slight increases in ALT, AST, and calcium | organ weights at necropsy ([7]; rat, in vivo, 40 mg/kg/day): decreased organ weights of prostate gland, seminal vesicles and thymus
